Data: article PMC7003846, “Effects of the ventilatory stimulant, doxapram on human TASK‐3 (KCNK9, K2P9.1) channels and TASK‐1 (KCNK3, K2P3.1) channels” (Acta Physiologica (Oxford, England), 2019)

Tests used:
human TASK-2 = target: T1, human TASK-2 (Homo sapiens, UniProt O95279); assay: Whole-cell patch clamp on tsA201 cells expressing cloned human TASK-2; format: cell-based; details: acute application, read-out: inhibition of WT TASK-2 current
T1 construct: expressed in transfected cells; host or cells: tsA201 (modified HEK293), transient transfection, pcDNA3.1+
T1 sequence (O95279 1-499): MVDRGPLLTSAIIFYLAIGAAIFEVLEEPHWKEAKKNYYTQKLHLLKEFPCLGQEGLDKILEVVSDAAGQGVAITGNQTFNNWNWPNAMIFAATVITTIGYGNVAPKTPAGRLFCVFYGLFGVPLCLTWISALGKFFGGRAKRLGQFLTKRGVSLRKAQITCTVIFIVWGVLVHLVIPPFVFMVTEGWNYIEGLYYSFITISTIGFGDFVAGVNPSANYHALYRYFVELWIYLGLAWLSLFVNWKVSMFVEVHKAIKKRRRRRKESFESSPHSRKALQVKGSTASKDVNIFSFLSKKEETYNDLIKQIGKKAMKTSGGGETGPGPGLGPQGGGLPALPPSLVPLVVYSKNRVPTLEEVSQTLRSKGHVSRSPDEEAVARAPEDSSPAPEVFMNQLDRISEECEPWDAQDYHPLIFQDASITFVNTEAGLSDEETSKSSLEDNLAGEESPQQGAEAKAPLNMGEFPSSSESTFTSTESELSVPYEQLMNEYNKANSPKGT
Procedure: (§1) Murine (mur) wild‐type (WT) TASK‐1 (KCNK3, Genbank^TM DQ185133) and WT murTASK‐3 (KCNK9, Genbank^TM AH009585.2) cDNA were cloned into pCS2^+ vector and were a kind gift from William Wisden (Imperial College, UK). Human WT TASK‐1 (Genbank^TM AF006823.1), WT TASK‐3 (Genbank^TM AF212829) and WT TASK‐2 (KCNK5, Genbank^TM AF084830.1) cDNA’s, were cloned into pcDNA3.1^+ vector (Invitrogen) and were a kind gift from Helen Meadows (GlaxoSmithKline).
(§2) All experiments were performed using a modified human embryonic kidney 293 cell line, tsA201 (ECACC; Sigma‐Aldrich), prepared and maintained as previously described.54 […]
(§3) Currents were recorded from tsA201 cells transiently transfected with the channel of interest using whole‐cell patch clamp in a voltage clamp configuration and a step‐ramp voltage protocol as previously described.54 Briefly, all experiments were conducted at room temperature (20‐24°C) using an external solution composed of 145 mM of NaCl, 2.5 mM of KCL, 3 mM of MgCl2, 1 mM of CaCl2 and 10 mM of HEPES (pH 7.4, using NaOH) and an intracellular pipette solution composed of 150 mM of KCL, 3 mM of MgCl2, 5 mM of EGTA and 10 mM of HEPES (pH adjusted to 7.4 with KOH). […] Currents were recorded using an Axopatch 1D patch clamp amplifier (Molecular Devices), filtered at 0.3 kHz, digitized at 1 kHz.
(§4) For analysis of outward current, we measured the current difference between the −80 and −40 mV. […]

TASK-3_L239D = target: T2, TASK-3_L239D (Homo sapiens, UniProt Q9NPC2, L239D); assay: Whole-cell patch clamp, human TASK-3 pore mutant L239D; format: cell-based; details: 10 µM (Figure 6C); read-out: percentage inhibition of TASK-3_L239D
T2 construct: expressed in transfected cells; host or cells: tsA201 (modified HEK293), transient transfection
T2 sequence (Q9NPC2 1-374 L239D): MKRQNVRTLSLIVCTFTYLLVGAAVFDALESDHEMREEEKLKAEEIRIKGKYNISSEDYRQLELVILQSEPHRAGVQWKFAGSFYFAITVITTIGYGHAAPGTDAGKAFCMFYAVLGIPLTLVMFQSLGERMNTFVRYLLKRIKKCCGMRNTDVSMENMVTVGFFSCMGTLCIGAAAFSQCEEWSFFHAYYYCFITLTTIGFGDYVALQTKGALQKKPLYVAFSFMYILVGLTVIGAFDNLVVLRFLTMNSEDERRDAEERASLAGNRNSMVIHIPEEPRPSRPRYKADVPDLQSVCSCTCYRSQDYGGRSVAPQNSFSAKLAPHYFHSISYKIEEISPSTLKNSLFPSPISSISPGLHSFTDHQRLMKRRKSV
From the text: as §1
(§5) Point mutations (L122D, G236D, L239D, V242D or a stop codon) were introduced by site‐directed mutagenesis into TASK‐3 cDNA using the Quikchange kit (Stratagene) as previously described.54 […]
as §3, with “kHz. […]” for “kHz.”

TASK-3_V242D = target: T3, TASK-3_V242D (Homo sapiens, UniProt Q9NPC2, V242D); assay: Whole-cell patch clamp, human TASK-3 pore mutant V242D; format: cell-based; details: 10 µM (Figure 6C); read-out: percentage inhibition of TASK-3_V242D
T3 construct: expressed in transfected cells; host or cells: tsA201 (modified HEK293), transient transfection
T3 sequence (Q9NPC2 whole entry V242D): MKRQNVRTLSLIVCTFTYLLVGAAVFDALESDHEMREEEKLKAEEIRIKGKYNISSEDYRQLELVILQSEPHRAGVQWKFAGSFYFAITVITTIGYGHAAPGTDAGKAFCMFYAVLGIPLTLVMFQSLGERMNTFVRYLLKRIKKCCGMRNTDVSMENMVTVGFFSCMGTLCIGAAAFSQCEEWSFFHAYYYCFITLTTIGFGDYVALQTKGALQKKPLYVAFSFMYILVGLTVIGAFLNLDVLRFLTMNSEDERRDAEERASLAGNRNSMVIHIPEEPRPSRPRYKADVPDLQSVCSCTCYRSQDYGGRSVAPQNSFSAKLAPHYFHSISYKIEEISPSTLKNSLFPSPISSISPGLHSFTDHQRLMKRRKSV
From the text: as §1, §5
as §3, with “kHz. […]” for “kHz.”

murTASK-1 = target: T4, murTASK-1 (Mus musculus, UniProt O35111); assay: Whole-cell patch clamp on tsA201 cells expressing cloned mouse TASK-1; format: cell-based
T4 construct: expressed in transfected cells; host or cells: tsA201 (modified HEK293), transient transfection, pCS2+
T4 sequence (O35111 whole entry): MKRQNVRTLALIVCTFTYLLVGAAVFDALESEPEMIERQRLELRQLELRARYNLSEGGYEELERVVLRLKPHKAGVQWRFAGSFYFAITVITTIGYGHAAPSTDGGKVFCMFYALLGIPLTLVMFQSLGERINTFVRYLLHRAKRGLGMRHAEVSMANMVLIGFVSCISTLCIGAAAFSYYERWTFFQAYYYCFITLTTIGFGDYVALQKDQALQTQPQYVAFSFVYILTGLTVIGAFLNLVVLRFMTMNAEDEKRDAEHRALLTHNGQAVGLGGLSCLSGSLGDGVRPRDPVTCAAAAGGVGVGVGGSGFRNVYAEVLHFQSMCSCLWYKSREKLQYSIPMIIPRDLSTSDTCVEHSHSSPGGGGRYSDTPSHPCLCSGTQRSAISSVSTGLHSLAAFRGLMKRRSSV
Procedure: as §1
(§6) All experiments were performed using a modified human embryonic kidney 293 cell line, tsA201 (ECACC; Sigma‐Aldrich), prepared and maintained as previously described.54
(§7) For the electrophysiological experiments, cells were transiently transfected using a modified calcium phosphate protocol, following a process as previously described.54 Vectors cloned with the gene of interest and a similar vector encoding the cDNA for GFP were added to each well at a concentration of 0.5 µg per well, with the exception being for murTASK‐3, where 0.125 µg per well was used.
(§8) Currents were recorded from tsA201 cells transiently transfected with the channel of interest using whole‐cell patch clamp in a voltage clamp configuration and a step‐ramp voltage protocol as previously described.54 Briefly, all experiments were conducted at room temperature (20‐24°C) using an external solution composed of 145 mM of NaCl, 2.5 mM of KCL, 3 mM of MgCl2, 1 mM of CaCl2 and 10 mM of HEPES (pH 7.4, using NaOH) and an intracellular pipette solution composed of 150 mM of KCL, 3 mM of MgCl2, 5 mM of EGTA and 10 mM of HEPES (pH adjusted to 7.4 with KOH). External solution and modulatory compounds were superfused at a rate of 4‐5 mL min^−1. Currents were recorded using an Axopatch 1D patch clamp amplifier (Molecular Devices), filtered at 0.3 kHz, digitized at 1 kHz.
(§9) For analysis of outward current, we measured the current difference between the −80 and −40 mV. The current‐voltage graphs were obtained from the ramp change in voltage between −120 and +20 mV. For each cell, the current amplitude (pA) was normalized to the cell capacitance (pF). The currents obtained were analysed using pCLAMP 10.2 software (Molecular Devices), Microsoft Excel and GraphPad Prism 6 or 7 software. Data were expressed as the mean ± 95% Confidence Intervals (CI), and n represents the number of individual cells. For EC50 calculations, concentration‐response curves were fitted using the Hill equation. Statistical analysis used were one‐way ANOVA with a post‐hoc Dunnett's test or an unpaired/paired Student's t test. Data were considered statistically different if P < .05. The data and statistical analysis comply with the recommendations on experimental design and analysis in pharmacology.55

[1] = tested on: rat TASK-1/TASK-3 heterodimeric channels; details: cloned rat channels; cited from earlier work
human TASK-3 = target: T5, human TASK-3 (Homo sapiens, UniProt Q9NPC2); assay: Whole-cell patch clamp on tsA201 cells expressing cloned human TASK-3; format: cell-based
T5 construct: expressed in transfected cells; host or cells: tsA201 (modified HEK293), transient transfection, pcDNA3.1+
T5 sequence (Q9NPC2 whole entry): as the sequence (Q9NPC2 whole entry V242D) above, with D242V counted along it
Procedure: as §1, §6, §7, §8, §9

[2] = target: T6, murTASK-3/murTASK-1 heterodimer channels (Mus musculus, UniProt O35111+Q3LS21); assay: Whole-cell patch clamp, forced heterodimer murTASK-3/murTASK-1; format: cell-based
T6 construct: expressed in transfected cells; host or cells: tsA201 (modified HEK293), transient transfection
T6 sequence (Q3LS21 whole entry): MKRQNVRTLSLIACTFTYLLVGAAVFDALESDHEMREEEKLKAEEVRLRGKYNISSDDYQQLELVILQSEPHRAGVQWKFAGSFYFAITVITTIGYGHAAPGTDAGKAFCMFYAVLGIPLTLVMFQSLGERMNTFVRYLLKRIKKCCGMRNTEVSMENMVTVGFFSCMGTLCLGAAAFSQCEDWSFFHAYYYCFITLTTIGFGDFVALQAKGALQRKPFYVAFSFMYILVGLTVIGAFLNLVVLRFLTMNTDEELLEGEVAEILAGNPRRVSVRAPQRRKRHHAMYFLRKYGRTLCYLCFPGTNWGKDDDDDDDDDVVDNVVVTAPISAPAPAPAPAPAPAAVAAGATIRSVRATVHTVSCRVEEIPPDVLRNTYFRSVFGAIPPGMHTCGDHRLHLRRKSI
T6 sequence (O35111 whole entry): as the sequence (O35111 whole entry) above
Procedure: as §1, §2, §3, §4

[3] = tested on: rat TASK-1 homodimeric channels; details: cited from earlier work
TASK-3_L122D = target: T7, TASK-3_L122D (Homo sapiens, UniProt Q9NPC2, L122D); assay: Whole-cell patch clamp, human TASK-3 pore mutant L122D; format: cell-based
T7 construct: expressed in transfected cells; host or cells: tsA201 (modified HEK293), transient transfection
T7 sequence (Q9NPC2 whole entry L122D): as the sequence (Q9NPC2 whole entry V242D) above, with L122D, D242V counted along it
From the text: as §1, §5
as §3, with “kHz. […]” for “kHz.”

TASK-3_G236D = target: T8, TASK-3_G236D (Homo sapiens, UniProt Q9NPC2, G236D); assay: Whole-cell patch clamp, human TASK-3 pore mutant G236D; format: cell-based; details: 10 µM (Figure 6C); read-out: percentage inhibition of TASK-3_G236D
T8 construct: expressed in transfected cells; host or cells: tsA201 (modified HEK293), transient transfection
T8 sequence (Q9NPC2 whole entry G236D): as the sequence (Q9NPC2 whole entry V242D) above, with G236D, D242V counted along it
From the text: as §1, §5
as §3, with “kHz. […]” for “kHz.”

[4] = target: T9, murTASK-1/murTASK-3 heterodimer channels (Mus musculus, UniProt O35111+Q3LS21); assay: Whole-cell patch clamp, forced heterodimer murTASK-1/murTASK-3; format: cell-based
T9 construct: expressed in transfected cells; host or cells: tsA201 (modified HEK293), transient transfection
T9 sequence (O35111 whole entry): as the sequence (O35111 whole entry) above
T9 sequence (Q3LS21 whole entry): as the sequence (Q3LS21 whole entry) above
Procedure: as §1, §2, §3, §4

murT3_Δ250 = target: T10, murT3_Δ250 (Mus musculus, UniProt Q3LS21); assay: Whole-cell patch clamp, C-terminally truncated mouse TASK-3; format: cell-based
T10 construct: Removal of the carboxy terminal of murTASK‐3 (murT3) attenuates doxapram effect further; expressed in transfected cells; host or cells: tsA201 (modified HEK293), transient transfection
T10 sequence (Q3LS21 1-249 limits assumed, stated change not applied): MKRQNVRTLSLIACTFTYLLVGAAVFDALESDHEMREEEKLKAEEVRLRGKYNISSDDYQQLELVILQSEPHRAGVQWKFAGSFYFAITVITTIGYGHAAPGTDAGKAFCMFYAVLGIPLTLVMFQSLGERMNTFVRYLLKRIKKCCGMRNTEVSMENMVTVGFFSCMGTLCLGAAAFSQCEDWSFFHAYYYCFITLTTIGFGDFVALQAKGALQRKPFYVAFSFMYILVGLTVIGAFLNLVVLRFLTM
From the text: as §1, §5
as §3, with “kHz. […]” for “kHz.”

[5] = tested on: rat TASK-3 homodimeric channels; details: cloned rat channels; cited from earlier work
human TASK-1 = target: T11, human TASK-1 (Homo sapiens, UniProt O14649); assay: Whole-cell patch clamp on tsA201 cells expressing cloned human TASK-1; format: cell-based
T11 construct: expressed in transfected cells; host or cells: tsA201 (modified HEK293), transient transfection, pcDNA3.1+
T11 sequence (O14649 whole entry): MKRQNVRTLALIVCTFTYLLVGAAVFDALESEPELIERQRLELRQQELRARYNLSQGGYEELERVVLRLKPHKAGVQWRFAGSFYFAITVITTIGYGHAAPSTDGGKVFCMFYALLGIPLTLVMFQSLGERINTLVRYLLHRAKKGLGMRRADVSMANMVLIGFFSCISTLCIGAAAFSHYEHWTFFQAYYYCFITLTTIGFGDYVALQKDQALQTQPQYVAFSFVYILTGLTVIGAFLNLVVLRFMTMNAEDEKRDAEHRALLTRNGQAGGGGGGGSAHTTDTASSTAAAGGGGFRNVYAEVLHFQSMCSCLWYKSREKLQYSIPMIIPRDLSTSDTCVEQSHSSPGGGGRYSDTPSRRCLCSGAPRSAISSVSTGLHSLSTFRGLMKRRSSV
Procedure: as §1, §6, §7, §8, §9

murTASK-3 = target: T12, murTASK-3 (Mus musculus, UniProt Q3LS21); assay: Whole-cell patch clamp on tsA201 cells expressing cloned mouse TASK-3; format: cell-based
T12 construct: expressed in transfected cells; host or cells: tsA201 (modified HEK293), transient transfection, pCS2+
T12 sequence (Q3LS21 whole entry): as the sequence (Q3LS21 whole entry) above
Procedure: as §1, §6, §7, §8, §9

hTASK-3_Δ250 = target: T13, hTASK-3_Δ250 (Homo sapiens, UniProt Q9NPC2); assay: Whole-cell patch clamp, C-terminally truncated human TASK-3; format: cell-based
T13 construct: truncating the channel to remove the C‐terminal of the human TASK‐3 channel (hTASK‐3_Δ250); expressed in transfected cells; host or cells: tsA201 (modified HEK293), transient transfection
T13 sequence (Q9NPC2 1-249 limits assumed, stated change not applied): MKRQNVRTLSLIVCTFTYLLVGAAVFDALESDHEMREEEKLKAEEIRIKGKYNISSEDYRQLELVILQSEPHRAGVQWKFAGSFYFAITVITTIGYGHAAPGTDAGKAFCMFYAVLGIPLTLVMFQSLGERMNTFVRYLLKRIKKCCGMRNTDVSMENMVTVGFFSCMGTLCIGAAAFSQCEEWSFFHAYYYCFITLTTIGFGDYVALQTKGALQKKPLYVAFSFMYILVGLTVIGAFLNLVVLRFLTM
From the text: as §1, §5
as §3, with “kHz. […]” for “kHz.”

[6] = concentration-response 0.3-100 µM

## CCN1CC(CCN2CCOCC2)C(c2ccccc2)(c2ccccc2)C1=O (stereo not shown) [doxapram, 1‐ethyl‐4‐(2‐morpholinoethyl)‐3,3‐diphenyl‐2‐pyrrolidinone]
Human TASK-2
  inhibition at 10 µM: 7%
TASK-3_L239D
  inhibition at 10 µM: 13%
TASK-3_V242D
  inhibition at 10 µM: 27%
murTASK-1; calculated from concentration-response curve, read-out: 50% effective concentration, murTASK-1
  EC50: 1.5 µM
murTASK-1; tsA201, 1 µM, acute application, read-out: current inhibition of murTASK-1
  inhibition at 1 µM: 28%
murTASK-1; tsA201, 3 µM, acute application, read-out: current inhibition of murTASK-1
  inhibition at 3 µM: 43%
murTASK-1; tsA201, 10 µM, acute application, read-out: current inhibition of murTASK-1
  inhibition at 10 µM: 58%
[1]
  EC50: 9 µM
Human TASK-3; 10 µM, acute application, WT
  inhibition of human TASK-3 current: 62%
Human TASK-3; 10 µM, washout
  recovery from inhibition of TASK-3: faster and more complete
Human TASK-3; [6]
  Hill slope, human TASK-3: 0.8
Human TASK-3; tsA201, 10 µM, acute application, WT, read-out: inhibition of human TASK-3 current
  inhibition at 10 µM: 68%
Human TASK-3; tsA201 cells, whole-cell patch clamp, room temperature, read-out: EC50, inhibition of human TASK-3 current
  EC50: 2.5 µM
[2]
  inhibition at 10 µM: 42%
[3]; cloned rat channels
  EC50: 0.41 µM
[3]; rat channels
  fold more potent on TASK-1 or heteromultimers of TASK-1 and TASK-3 than on TASK-3: 90 fold
TASK-3_L122D; 10 µM (Figure 6C), read-out: percentage inhibition of TASK-3_L122D
  inhibition at 10 µM: 6%
TASK-3_G236D
  inhibition at 10 µM: 26%
[4]
  inhibition at 10 µM: 58%
murT3_Δ250
  inhibition at 10 µM: 4%
[5]
  EC50: 37 µM
Human TASK-1; 10 µM, washout
  recovery from inhibition of TASK-1: slow and mostly incomplete
Human TASK-1; [6]
  Hill slope, human TASK-1: 0.8
Human TASK-1; tsA201, 10 µM, acute application, read-out: inhibition of human TASK-1 current
  inhibition at 10 µM: 55%
Human TASK-1; tsA201 cells, whole-cell patch clamp, room temperature, read-out: EC50, inhibition of human TASK-1 current
  EC50: 4 µM
murTASK-3; estimated, read-out: 50% effective concentration, murTASK-3
  EC50: ≥ 100 µM
murTASK-3; tsA201, 10 µM, acute application, read-out: current inhibition of murTASK-3
  inhibition at 10 µM: 21%
murTASK-3; tsA201, 100 µM, acute application, read-out: current inhibition of murTASK-3
  inhibition at 100 µM: 56%
hTASK-3_Δ250
  inhibition at 10 µM: 19%

## [Cl-].[Cl-].[Zn+2] [zinc, Zinc Chloride]
Human TASK-3; 100 µM, acute application, WT
  inhibition of human TASK-3 current: 94%
TASK-3_L122D; 100 µM
  inhibition of TASK-3_L122D: 87%
